Data set [1] relates to CYP2C9 and CYP3A4. Set-up: method as in He and Edeki [2004]. The settings on record: inhibitory effects appear negligible; ref He and Edeki [2004]; cited from earlier work.
Data set [2] is described as follows: Pharmacokinetics of ROS with single-dose GLT in rats. The conditions noted are these: for CL/F / AUC(0-t) / Cmax / MRT / Tmax: ROS 10 mg/kg oral; for AUC(0-t) / Cmax / MRT / Tmax / half-life: male, Sprague-Dawley, rat, plasma, po, 10 mg/kg; for AUC(0-t): AUC0-t; for half-life: t1/2, ROS 10 mg/kg oral; for extension of MRT vs control: ROS 10 mg/kg.
Data set [3] is described as follows: Pharmacokinetics of ROS after 10-day multiple-dose GLT in rats. The class given is in vivo, Sprague-Dawley rats. The settings on record: ROS 10 mg/kg oral; for AUC(0-t) / Cmax / MRT / Tmax / half-life: male, Sprague-Dawley, rat, plasma, po, 10 mg/kg.
Data set [4] addresses T1, recombinant human CYP2C8 (RHCYP2C8) (Homo sapiens, UniProt P10632).
T1 sequence (P10632 1-490): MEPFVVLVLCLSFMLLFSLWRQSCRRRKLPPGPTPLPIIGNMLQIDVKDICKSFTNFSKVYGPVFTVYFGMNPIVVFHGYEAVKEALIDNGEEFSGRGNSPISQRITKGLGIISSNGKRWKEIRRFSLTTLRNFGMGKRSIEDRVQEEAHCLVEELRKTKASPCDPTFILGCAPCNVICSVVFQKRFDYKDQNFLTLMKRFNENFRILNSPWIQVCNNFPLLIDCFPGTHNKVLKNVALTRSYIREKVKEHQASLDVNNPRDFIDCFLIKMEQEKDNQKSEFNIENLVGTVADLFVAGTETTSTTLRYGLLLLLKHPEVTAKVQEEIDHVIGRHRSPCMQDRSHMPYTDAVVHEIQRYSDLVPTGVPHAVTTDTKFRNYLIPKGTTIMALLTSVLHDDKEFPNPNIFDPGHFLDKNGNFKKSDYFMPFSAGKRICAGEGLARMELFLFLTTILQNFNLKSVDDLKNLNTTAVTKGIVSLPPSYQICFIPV
Put plainly: Inhibition of RHCYP2C8 yeast microsomes, probe substrate amodiaquine. The settings on record: for inhibitor intensity classification for CYP2C8: class by IC50, general rules (Testa 2007). As to the method:
(§1) RHCYP2C8 and RHCYP2C9 yeast microsomes were extracted using the glass bead crushing method and differential centrifugation, with grinding 15 times by 0.5 g glass beads and centrifugation at 9,000 g for 20 min at 4 °C. The supernatant was then centrifuged at 100,000 g at 4 °C (BECKMAN COULTER Optima™ L-80 XP Ultracentrifuge) for 1 h, and the precipitation was RHCYP2C8 or RHCYP2C9 yeast microsome. Reconstituted with potassium phosphate buffer (pH 7.4), the microsome solution was collected and stored at −80 °C for subsequent examination. Protein concentrations of microsomes were determined using the Lowry method.
Amodiaquine and diclofenac are typical CYP2C8 and CYP2C9 probe substrates, respectively. […] The 0.4 mL incubation mixtures contained inhibitors (0–500 μmol/L), potassium phosphate buffer (pH 7.4) in common, and RHCYP2C8 (12.4 mg/mL) with amodiaquine or RHCYP2C9 (4.6 mg/mL) with diclofenac. […] The reactions were initiated by the addition of NADPH with pre-incubation 10 min in advance and carried out for 40 min.
(§2) The CYP2C8 sample treatment process was that incubation was terminated by adding 200 μL of methanol. Samples were centrifuged at 12,000 rpm for 10 min, and the supernatant was subjected to HPLC. The CYP2C9 sample treatment process was that each sample (100 μL) was spiked with 10 μL of carbamazepine (30 μg/mL). The mixture was then extracted with 500 μL ethyl acetate by vortexing for 3 min and centrifuged at 12,000 rpm for 10 min. […] The residue was dissolved in 100 μL methanol for HPLC analysis.

Data set [5] addresses recombinant human CYP2C9 (RHCYP2C9) (Homo sapiens, UniProt P11712). Description: Inhibition of RHCYP2C9 yeast microsomes, probe substrate diclofenac. The settings on record: for inhibitor intensity classification for CYP2C9: class by IC50, general rules (Testa 2007). As to the method: as §1
Amodiaquine and diclofenac are typical CYP2C8 and CYP2C9 probe substrates, respectively. […] The reactions were initiated by the addition of NADPH with pre-incubation 10 min in advance and carried out for 40 min.
as §2

Data set [6] concerns CYP2C8. Details: method as in Unger and Frank [2004]. The settings on record: ref Unger and Frank [2004]; read-out: IC50 for CYP2C8 (previous finding); cited from earlier work.
Setting [7] is: multiple-dose GLT 100 mg/kg for 10 days.
Where [8] appears, read: multiple-dose GLT 200 mg/kg for 10 days.

Here are results for 5 molecules from publication PMC9246016 (Pharmaceutical Biology, 2022).

Sequence of recombinant human CYP2C9 (RHCYP2C9) (P11712 whole entry): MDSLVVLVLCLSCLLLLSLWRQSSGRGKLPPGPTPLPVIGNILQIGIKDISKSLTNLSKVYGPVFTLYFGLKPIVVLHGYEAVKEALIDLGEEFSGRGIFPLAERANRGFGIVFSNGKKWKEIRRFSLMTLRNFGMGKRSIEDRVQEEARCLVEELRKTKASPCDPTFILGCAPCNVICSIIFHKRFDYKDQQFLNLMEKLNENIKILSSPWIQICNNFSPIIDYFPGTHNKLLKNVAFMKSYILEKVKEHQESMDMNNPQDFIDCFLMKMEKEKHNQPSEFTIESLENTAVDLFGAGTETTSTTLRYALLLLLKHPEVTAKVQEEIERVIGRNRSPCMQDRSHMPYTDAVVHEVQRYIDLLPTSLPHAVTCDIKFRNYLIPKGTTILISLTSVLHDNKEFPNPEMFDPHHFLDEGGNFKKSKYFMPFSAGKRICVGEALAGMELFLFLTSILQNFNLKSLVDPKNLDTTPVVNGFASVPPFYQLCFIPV

As to ginkgolide B, the “concentrations at which effects are pronounced” value in data set [1] is on record as “greater than 100 μmol/L”.

As usually defined, the CL/F is the apparent clearance, not corrected for the fraction that reaches the circulation. Broadly, the AUC(0-t) is exposure summed from dosing to a finite time, without extrapolation to infinity. A lower AUC(0-t) goes with less exposure. Broadly, the Cmax is the peak of the concentration-time curve. By MRT is commonly meant a mean duration of stay, worked out from the concentration-time curve. Usually Tmax stands for the time at which the peak concentration occurs. In general, half-life refers to how long it takes for the measured level to halve. The low end stands for fast loss, the high end for slow loss. In the case of `CN(CCOc1ccc(CC2SC(=O)NC2=O)cc1)c1ccccn1` (centres unmarked) [ROS, Rosiglitazone], in data set [2] (control (vehicle), single dose), the CL/F is listed as 16.46 ± 1.91 mL/h, the AUC(0-t) was determined as 117 ± 12.2 µg·h/mL, the concentration peaked (Cmax) at 29100 ± 5980 ng/mL and the MRT worked out at 3.02 ± 0.28 h. Also, in data set [2] (control (vehicle), single dose), the Tmax stood at 0.9 ± 0.34 h and the half-life was 2.14 ± 0.38 h. In data set [2] (single-dose GLT 100 mg/kg), this molecule yielded a CL/F of 14.58 ± 2.12 mL/h, an exposure AUC(0-t) of 130 ± 24.3 µg·h/mL, a Cmax of 28800 ± 5860 ng/mL and a mean residence time (MRT) of 3.66 ± 0.63 h. Moreover, in data set [2] (single-dose GLT 100 mg/kg), the Tmax was determined as 1.01 ± 0.65 h, the half-life is 2.79 ± 0.37 h and the “extension of MRT vs control” value stood at 21%. Further, in data set [2] (single-dose GLT 200 mg/kg), the CL/F is 13.97 ± 3.43 mL/h, the area under the curve AUC(0-t) amounted to 139 ± 40.6 µg·h/mL, the peak concentration (Cmax) stood at 26000 ± 6990 ng/mL and the MRT was determined as 4.24 ± 1.04 h. In data set [2] (single-dose GLT 200 mg/kg), the Tmax came out at 0.8 ± 0.26 h, the half-life was 3.26 ± 1.08 h and the “extension of MRT vs control” value was 40%. In addition, in data set [3] (control (vehicle 10 days)), the CL/F was 13.92 ± 3.04 mL/h, the AUC(0-t) was 140 ± 45.5 µg·h/mL, the Cmax was 38700 ± 9730 ng/mL and the mean residence time MRT came to 3.27 ± 0.65 h. In data set [3] (control (vehicle 10 days)), the Tmax was 0.79 ± 0.4 h and the half-life is 2.75 ± 0.7 h. In data set [3] (setting [7]), this molecule showed an apparent clearance (CL/F) of 25.54 ± 9.02 mL/h, an exposure AUC(0-t) of 84.6 ± 39.9 µg·h/mL, a maximum concentration (Cmax) of 28500 ± 5560 ng/mL and a mean residence time (MRT) of 2.95 ± 1.13 h. Also, in data set [3] (setting [7]), the time to peak (Tmax) came to 0.54 ± 0.25 h and the half-life is 1.99 ± 0.44 h. In addition, in data set [3] (setting [8]), the CL/F is 30.00 ± 8.52 mL/h, the AUC(0-t) came out at 66.6 ± 15.9 µg·h/mL, the Cmax came to 28400 ± 4640 ng/mL and the mean residence time MRT turned out to be 2.13 ± 0.28 h. In data set [3] (setting [8]), the time of peak concentration (Tmax) was 0.37 ± 0.13 h and the half-life is 1.68 ± 0.35 h.

Broadly, the IC50 is the point on the concentration scale where inhibition reaches its midpoint. In the case of `O=c1c(O)c(-c2ccc(O)cc2)oc2cc(O)cc(O)c12` [kaempferol], in data set [4], the concentration for half-maximal inhibition (IC50) stood at 7.67 µM; the “inhibitor intensity classification for CYP2C8” value is “moderate (moderate inhibitors are between 1 and 10 μmol/L)”. In data set [5], the IC50 worked out at 7.57 µM; the “inhibitor intensity classification for CYP2C9” value is “moderate (moderate inhibitors are between 1 and 10 μmol/L)”.

As to `COc1cc(-c2oc3cc(O)cc(O)c3c(=O)c2O)ccc1O` [isorhamnetin], in data set [4], the IC50 was 11.9 µM and the “inhibitor intensity classification for CYP2C8” value was “weak (weak inhibitors are over 10 μmol/L)”. For the same molecule, in data set [5], the IC50 stood at 4.59 µM; the “inhibitor intensity classification for CYP2C9” value was “moderate (moderate inhibitors are between 1 and 10 μmol/L)”.

Consider `O=c1c(O)c(-c2ccc(O)c(O)c2)oc2cc(O)cc(O)c12` [quercetin], for which the “inhibitor intensity classification for CYP2C8” value in data set [4] is “moderate (moderate inhibitors are between 1 and 10 μmol/L)”. Further, the half-maximal inhibitory concentration (IC50) in data set [6] is […]. Moreover, the “inhibitor intensity classification for CYP2C9” value in data set [5] is reported as “weak (weak inhibitors are over 10 μmol/L)”.
